This is an account of results in ChEMBL document CHEMBL3525932, “Comparison of metabolism of sesamin and episesamin by drug-metabolizing enzymes in human liver” (Drug Metab Dispos, 2012).

Data set [1] has as its target T1, Cytochrome P450 2C19 (Homo sapiens, UniProt P33261). Kind of data set: Activity of recombinant human CYP2C19 expressed in Saccharomyces cerevisiae AH22 cells assessed as enzyme-mediated compound formation treated with sesamin at 2 to 20 uM after 15 mins by HPLC analysis in presence of NADPH. It counts as ADME, cell-based. The note with it: ah22, 0.25 h.
Data set [2] addresses T2, Cytochrome P450 2C9 (Homo sapiens, UniProt P11712). The experiment in a line: Activity of recombinant human CYP2C9 expressed in Saccharomyces cerevisiae AH22 cells assessed as enzyme-mediated compound formation treated with (R)-episesamin monocatechol at 1 to 30 uM after 15 mins by HPLC analysis in presence of NADPH. The format is ADME, cell-based. The note with it: ah22, 0.25 h.

For data set [3], the target named is T2, Cytochrome P450 2C9. The experiment in a line: Activity of recombinant human CYP2C9 expressed in Saccharomyces cerevisiae AH22 cells assessed as enzyme-mediated compound formation treated with (S)-episesamin monocatechol at 1 to 30 uM after 15 mins by HPLC analysis in presence of NADPH. The format is ADME, cell-based. The note with it: ah22, 0.25 h.
In data set [4] the target is T3, Cytochrome P450 1A2 (Homo sapiens, UniProt P05177).
T3 sequence (P05177 whole entry): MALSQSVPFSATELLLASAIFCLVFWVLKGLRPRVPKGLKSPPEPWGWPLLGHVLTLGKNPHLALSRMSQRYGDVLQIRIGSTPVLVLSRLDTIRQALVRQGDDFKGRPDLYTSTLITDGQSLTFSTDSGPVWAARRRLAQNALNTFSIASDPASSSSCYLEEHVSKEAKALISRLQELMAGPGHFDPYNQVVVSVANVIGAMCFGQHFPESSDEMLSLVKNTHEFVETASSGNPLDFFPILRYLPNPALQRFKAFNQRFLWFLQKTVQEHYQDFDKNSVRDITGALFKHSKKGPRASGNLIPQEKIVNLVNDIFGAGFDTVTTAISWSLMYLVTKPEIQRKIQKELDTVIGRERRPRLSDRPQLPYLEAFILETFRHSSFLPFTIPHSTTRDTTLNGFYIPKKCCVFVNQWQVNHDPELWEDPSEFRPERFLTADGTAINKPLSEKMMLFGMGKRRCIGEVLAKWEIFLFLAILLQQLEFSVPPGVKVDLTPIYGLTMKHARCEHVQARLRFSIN
Kind of data set: Activity of recombinant human CYP1A2 expressed in Saccharomyces cerevisiae AH22 cells assessed as enzyme-mediated compound formation treated with (R)-episesamin monocatechol at 1 to 30 uM after 15 mins by HPLC analysis in presence of NADPH. The note with it: ah22, 0.25 h. It counts as ADME, cell-based.

For data set [5], the target named is T1, Cytochrome P450 2C19. The experiment in a line: Activity of recombinant human CYP2C19 expressed in Saccharomyces cerevisiae AH22 cells assessed as enzyme-mediated compound formation treated with episesamin at 2 to 75 uM after 15 mins by HPLC analysis in presence of NADPH. The format is ADME, cell-based. The note with it: ah22, 0.25 h.
Data set [6] has as its target T3, Cytochrome P450 1A2. Kind of data set: Activity of recombinant human CYP1A2 expressed in Saccharomyces cerevisiae AH22 cells assessed as enzyme-mediated compound formation treated with (S)-episesamin monocatechol at 1 to 30 uM after 15 mins by HPLC analysis in presence of NADPH. The note with it: ah22, 0.25 h. It counts as ADME, cell-based.
Data set [7] deals with Liver microsome. The experiment in a line: Drug level in human liver microsomes treated with episesamin at 2 to 75 uM after 15 mins by HPLC analysis in presence of NADPH. The note with it: 0.25 h. The format is ADME. In general terms: Liver microsomes are a subcellular fraction often used to study metabolism.
The test system of data set [8] is CYP450. Kind of data set: Drug metabolism in human liver microsomes assessed as CYP450-mediated catecholization after 10 to 30 mins by HPLC analysis in presence of NADPH. It counts as ADME.
For data set [9], the system named is Liver microsome. Kind of data set: Drug level in human liver microsomes treated with episesamin at 5 uM after 30 mins by HPLC analysis in presence of NADPH. The note with it: 0.5 h. It counts as ADME.
Data set [10] can be described thus: Drug metabolism in human liver microsomes assessed as UGT-mediated glucuronidation per mg of protein after 10 to 30 mins by HPLC analysis in presence of UDP-GlcUA. It counts as ADME.
Data set [11] in a line: Drug metabolism in Sprague-Dawley rat liver microsomes assessed as CYP450-mediated catecholization per mg of protein after 10 to 30 mins by HPLC analysis in presence of NADPH. It counts as ADME.
In data set [12] the test system is CYP450. Kind of data set: Drug metabolism in Sprague-Dawley rat liver microsomes assessed as CYP450-mediated catecholization after 10 to 30 mins by HPLC analysis in presence of NADPH. It counts as ADME.
Data set [13] has as its target T1, Cytochrome P450 2C19. The experiment in a line: Activity of recombinant human CYP2C19 expressed in Saccharomyces cerevisiae AH22 cells assessed as enzyme-mediated episesamin dicatechol formation after 15 mins by HPLC analysis in presence of NADPH. The format is ADME, cell-based. The note with it: ah22, 0.25 h.
For data set [14], the target named is T2, Cytochrome P450 2C9. Kind of data set: Activity of recombinant human CYP2C9 expressed in Saccharomyces cerevisiae AH22 cells assessed as enzyme-mediated episesamin dicatechol formation after 15 mins by HPLC analysis in presence of NADPH. It counts as ADME, cell-based. The note with it: ah22, 0.25 h.
Data set [15] deals with UGT. Kind of data set: Drug metabolism in human liver microsomes assessed as UGT-mediated glucuronidation after 10 to 30 mins by HPLC analysis in presence of UDP-GlcUA. The format is ADME.
The target in data set [16] is T3, Cytochrome P450 1A2. Kind of data set: Activity of recombinant human CYP1A2 expressed in Saccharomyces cerevisiae AH22 cells assessed as enzyme-mediated episesamin dicatechol formation after 15 mins by HPLC analysis in presence of NADPH. The format is ADME, cell-based. The note with it: ah22, 0.25 h.
Data set [17] deals with UGT. The experiment in a line: Drug metabolism in Sprague-Dawley rat liver microsomes assessed as UGT-mediated glucuronidation after 10 to 30 mins by HPLC analysis in presence of UDP-GlcUA. It counts as ADME.
The target in data set [18] is T4, UDP-glucuronosyltransferase 2B7 (Homo sapiens, UniProt P16662).
T4 sequence (P16662 whole entry): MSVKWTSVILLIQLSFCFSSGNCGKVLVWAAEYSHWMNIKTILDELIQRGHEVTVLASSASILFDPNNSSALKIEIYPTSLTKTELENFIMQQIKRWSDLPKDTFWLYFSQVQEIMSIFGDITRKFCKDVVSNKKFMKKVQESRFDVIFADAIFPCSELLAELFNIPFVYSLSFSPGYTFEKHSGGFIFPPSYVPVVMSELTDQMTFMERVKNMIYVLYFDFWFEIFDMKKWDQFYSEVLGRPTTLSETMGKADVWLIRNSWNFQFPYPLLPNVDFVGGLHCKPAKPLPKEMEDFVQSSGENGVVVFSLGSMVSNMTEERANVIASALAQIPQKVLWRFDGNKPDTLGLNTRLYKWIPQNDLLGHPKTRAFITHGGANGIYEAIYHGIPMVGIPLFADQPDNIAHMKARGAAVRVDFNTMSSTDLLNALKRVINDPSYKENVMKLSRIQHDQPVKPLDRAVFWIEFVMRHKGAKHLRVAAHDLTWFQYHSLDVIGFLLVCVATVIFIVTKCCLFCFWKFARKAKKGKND
Kind of data set: Activity of recombinant human UGT2B7 expressed in baculovirus infected insect cells assessed as enzyme-mediated glucuronidation at 1 to 30 uM after 10 to 30 mins by HPLC analysis in presence of UDP-GlcUA. The format is ADME.

The nature of data set [19]: Drug metabolism in Sprague-Dawley rat liver microsomes assessed as UGT-mediated glucuronidation per mg of protein after 10 to 30 mins by HPLC analysis in presence of UDP-GlcUA. It counts as ADME.
Data set [20] in a line: Drug metabolism in human liver microsomes assessed as CYP450-mediated catecholization per mg of protein after 10 to 30 mins by HPLC analysis in presence of NADPH. The format is ADME.
Data set [21] deals with T2, Cytochrome P450 2C9. The experiment in a line: Activity of recombinant human CYP2C9 expressed in Saccharomyces cerevisiae AH22 cells assessed as enzyme-mediated compound formation treated with episesamin at 2 to 75 uM after 15 mins by HPLC analysis in presence of NADPH. The format is ADME, cell-based. The note with it: ah22, 0.25 h.
The target in data set [22] is T3, Cytochrome P450 1A2. The experiment in a line: Activity of recombinant human CYP1A2 expressed in Saccharomyces cerevisiae AH22 cells assessed as enzyme-mediated compound formation treated with episesamin at 2 to 75 uM after 15 mins by HPLC analysis in presence of NADPH. The note with it: ah22, 0.25 h. The format is ADME, cell-based.

T2 sequence (P11712 whole entry): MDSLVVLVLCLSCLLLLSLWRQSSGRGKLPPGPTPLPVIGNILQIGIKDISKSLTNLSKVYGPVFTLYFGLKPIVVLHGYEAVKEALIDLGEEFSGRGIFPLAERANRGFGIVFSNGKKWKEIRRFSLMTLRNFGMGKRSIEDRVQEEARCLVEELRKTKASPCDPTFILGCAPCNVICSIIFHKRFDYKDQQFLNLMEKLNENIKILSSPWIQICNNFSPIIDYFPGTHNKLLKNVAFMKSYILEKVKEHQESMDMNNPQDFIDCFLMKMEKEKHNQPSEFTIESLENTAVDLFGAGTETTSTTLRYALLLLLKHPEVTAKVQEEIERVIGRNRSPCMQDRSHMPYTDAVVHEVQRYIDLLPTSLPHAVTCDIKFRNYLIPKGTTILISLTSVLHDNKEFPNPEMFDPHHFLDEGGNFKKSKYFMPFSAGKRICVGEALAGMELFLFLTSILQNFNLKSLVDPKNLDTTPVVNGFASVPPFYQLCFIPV
T1 sequence (P33261 whole entry): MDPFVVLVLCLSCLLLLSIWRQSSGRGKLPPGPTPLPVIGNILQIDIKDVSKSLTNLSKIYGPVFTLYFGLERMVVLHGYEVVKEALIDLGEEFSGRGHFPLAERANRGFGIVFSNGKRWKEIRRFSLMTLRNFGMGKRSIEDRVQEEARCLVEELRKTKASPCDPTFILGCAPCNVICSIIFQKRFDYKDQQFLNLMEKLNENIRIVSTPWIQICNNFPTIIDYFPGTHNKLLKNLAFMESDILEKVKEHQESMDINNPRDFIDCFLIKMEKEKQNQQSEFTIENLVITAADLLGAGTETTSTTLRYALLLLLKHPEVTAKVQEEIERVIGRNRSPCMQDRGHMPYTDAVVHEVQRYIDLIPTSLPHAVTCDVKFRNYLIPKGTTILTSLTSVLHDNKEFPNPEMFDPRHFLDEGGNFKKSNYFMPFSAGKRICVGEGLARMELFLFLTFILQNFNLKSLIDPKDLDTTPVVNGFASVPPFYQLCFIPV

Consider `Oc1ccc([C@H]2OC[C@H]3[C@@H]2CO[C@@H]3c2ccc(O)c(O)c2)cc1O`, for which, on Cytochrome P450 2C19 [1], the Drug metabolism entry is given as “metabolite_detected”.
Take `Oc1ccc([C@H]2OC[C@H]3[C@@H]2CO[C@H]3c2ccc(O)c(O)c2)cc1O`: the Drug metabolism entry at Cytochrome P450 2C9 [2], at Cytochrome P450 2C9 [3], at Cytochrome P450 1A2 [4], at Cytochrome P450 2C19 [5] and at Cytochrome P450 1A2 [6] was “metabolite_detected” throughout.
As usually defined, the Km is the concentration of substrate that gives half-maximal velocity. The term Vmax denotes the rate approached at saturating substrate. Take `Oc1ccc([C@H]2OC[C@H]3[C@@H]2CO[C@H]3c2ccc3c(c2)OCO3)cc1O`: the Drug metabolism entry in the data set on Liver microsome [7] is on record as “metabolite_detected”; in the data set with Liver microsome [9] it was “metabolite_detected”; on Cytochrome P450 2C19 [13] it was 9.4 nmol/min; on Cytochrome P450 2C19 [5], “metabolite_detected”; on Cytochrome P450 2C9 [14] it was 0.19 nmol/min; on Cytochrome P450 1A2 [16] it was 0.38 nmol/min. Moreover, in data set [18], the Drug metabolism result was “metabolite_detected”. Also, the Michaelis constant (Km) in the data set with CYP450 [8] worked out at 4.1 µM; in the data set with CYP450 [12], 2.9 µM; with UGT [15] it was 9.9 µM; with UGT [17], 16.8 µM. For the same compound, the Vmax in [10] was 0.55 nmol/min/mg; in data set [11], 1.9 nmol/min/mg; in [19], 4.4 nmol/min/mg; in [20] it was 0.28 nmol/min/mg.
As to `Oc1ccc([C@@H]2OC[C@H]3[C@@H]2CO[C@@H]3c2ccc3c(c2)OCO3)cc1O`, the Drug metabolism entry with Liver microsome [7] is on record as “metabolite_detected”; in the data set on Liver microsome [9], “metabolite_detected”; on Cytochrome P450 2C9 [21] it was “metabolite_detected”; on Cytochrome P450 2C19 [13], 9.4 nmol/min; on Cytochrome P450 2C19 [5], “metabolite_detected”; at Cytochrome P450 2C9 [14] it was 0.19 nmol/min. For the same compound, the results for the Drug metabolism (on Cytochrome P450 1A2 [16]; on Cytochrome P450 1A2 [22]; in [18]) were 0.38 nmol/min, “metabolite_detected” and “metabolite_detected”, respectively. Also, the Km turned out to be 1.8 µM in the data set on CYP450 [8], 8.7 µM in the data set on CYP450 [12], 8.6 µM in the data set on UGT [15] and 9.9 µM in the data set with UGT [17]. Besides, the Vmax was 0.68 nmol/min/mg in [10], 0.55 nmol/min/mg in [19] and 0.15 nmol/min/mg in data set [20].
